Laboratory results from patent US12594350B2, “CD8-specific capture agents, compositions, and methods of using and making” (Regeneron Pharmaceuticals, Inc., priority 2016, dated 2026).
Blank lines part the entries; values can stand above or below the compound they belong to. Bridge positions count the residues as written; N and C are the ends. Square brackets hold non-standard residues; d marks the D form. Triazole bridges read from a SMILES are 1,4-linked. Ends that are not written are not given here. Peptide text beside a SMILES is read from it. * marks the point of attachment. Biotin = O=C1N[C@H]2[C@H](CS[C@H]2CCCCC(=O)*)N1; Lys(N3) = [N-]=[N+]=NCCCC[C@H](N)C(=O)O; Pra = C#CC[C@H](N)C(=O)O; AEA = NCCOCC(=O)O

Assays:
[1] = target: His-tagged CD8α human recombinant protein (Homo sapiens, UniProt P01732); assay: CD8 ELISA (affinity assay) of biligands to determine cooperativity; type: binding; parameters: purchased Origene TP760215; conditions: biotinylated biligand immobilized on NeutrAvidin plate; CD8α titrated 200 to 0 nM; read-out: EC50 against CD8
Experimental: CD8 ELISA (Affinity assay). […] The plate was then blocked with 2 μM Biotin for 15 min.
This predicts that an optimized linker to covalently join two PCC macrocycles will have a length near 28.2 Å. In FIG. 17 that prediction is validated by testing polyethylene glycol (PEG) linkers of varying lengths. […] This represents a >30-fold improvement in affinity relative to the individual PCC macrocyclic ligands. Shorter or longer linkers yield biligand affinities that, while improved over either of the PCC macrocycles, are about ˜10-fold below that of the optimal linker.

[2] = In vivo PET imaging, PK and biodistribution in normal mice; conditions: normal mouse, intravenous via tail vein, 50-100 μCi
Protocol: In vivo PK of the radiolabeled macrocycle anchors and biligands was visualized and quantitatively determined by PET imaging in normal (healthy) mice. Radiolabeled peptides were formulated in PBS pH 7.4 containing <10% EtOH. 50-100 μCi of radiolabeled peptide was administered intravenously via the tail vein of each mouse. Dynamic (0-1 hour) and static PET imaging was performed to quantify initial peptide biodistribution, time to clear the initial concentration sites, and final excretion route. A CT scan was subsequently acquired for anatomical reference. Imaging was performed on GENISYS8 and Inveon microPET-CT small animal scanners.

human PBMCs = assay: Cellular binding assay of CD8 biligand by flow cytometry; type: cell-based; conditions: human PBMCs co-stained with CD3-APC mAb; biligand 5 μM
Experimental: Cryopreserved human peripheral blood mononuclear cells (PBMCs) from Zen-Bio (1 donor; #SER-PBMC-F) were thawed using Lymphocyte Medium (#LYMPH-1, Zen-Bio) following the vendor's protocol. Cells were then resuspended in FACS buffer (1× Dulbecco's Phosphate-Buffered Saline+2% Fetal Bovine Serum+2 mM EDTA).
Protocol: A total of 1×10^6 human PBMCs in 50 μL of FACs buffer was incubated with 0.5 μL of Alexa Fluor 488-labeled biligand Cy(HGRGH) (SEQ ID NO: 21)-PEG5-Cy(AKYRG) (SEQ ID NO: 8) (final concentration: 5 μM), 2 μL of human CD3-APC mAb (clone: BW264/56) (#130-098-156, MACS Miltenyi Biotec), and 2.5 μL of 7-AAD Viability Staining Solution (#00-6993, eBioscience) at room temperature for 30 min. […] Data were obtained and analyzed with FACSCalibur and FACSDiva v8.0.1 (BD Biosciences), respectively.
Flow cytometry was used to evaluate biligand detection of cellular CD8. […] Samples were then washed and analyzed for green (CD8; FITC-A) and red (CD3; APC-A) fluorescence. […] The cell populations in Q2 (10.9%) and Q4 (11.6%) were detected by the biligand as CD8+ and are consistent with the % CD8+ cells reported by the vendor. […] The cell populations detected by the CD8-FITC mAb were 11.2% in Q2 and 2.1% in Q4.

Chain of His-tagged CD8α human recombinant protein (P01732 22-235): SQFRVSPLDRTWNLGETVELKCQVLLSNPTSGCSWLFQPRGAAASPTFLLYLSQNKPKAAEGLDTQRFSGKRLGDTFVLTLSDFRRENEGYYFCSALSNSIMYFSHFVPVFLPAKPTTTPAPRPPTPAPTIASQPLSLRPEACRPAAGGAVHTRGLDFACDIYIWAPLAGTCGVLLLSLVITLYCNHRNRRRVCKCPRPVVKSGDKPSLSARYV

EC50 [1]: 0.058 nM
Compound: C[C@H](O)[C@H]1NC(=O)[C@@H](Cc2c[nH]cn2)NC(=O)CNC(=O)[C@@H](N)CCCCn2cc(nn2)C[C@@H](C(=O)N[C@@H](CCCCNC(=O)CCCC[C@@H]2SC[C@@H]3NC(=O)N[C@@H]32)C(=O)NCCOCC(=O)N[C@H]2CCCCn3cc(nn3)C[C@@H](C(N)=O)NC(=O)[C@@H](Cc3c[nH]cn3)NC(=O)CNC(=O)[C@@H](CCCNC(=N)N)NC(=O)CNC(=O)[C@@H](Cc3c[nH]cn3)NC2=O)NC(=O)[C@H]2CCCN2C(=O)[C@@H](Cc2c[nH]c3ccccc23)NC1=O [Cy(Ghtwp)-Lys (Biotin)-PEG1-Cy(hGrGh)] (H-[Lys(N3)]G[dH][dT][dW][dP][Pra]K(Biotin)[AEA][Lys(N3)][dH]G[dR]G[dH][Pra]-NH2; triazole 1-7, 10-16)

Compound: O=Cc1ccc([18F])cc1 [[^18F]FB, 4-[^18F]fluorobenzaldehyde]
biodistribution and clearance route by PET (in words) [2]: rapid kidney uptake and clearance, then near exclusive bladder occupancy by 30 minutes

Compound: Alexa Fluor 488-labeled biligand Cy(HGRGH)-PEG5-Cy(AKYRG): biligand Cy(HGRGH)-PEG5-Cy(AKYRG) resynthesized with an Alexa Fluor 488 label (not fully specified (bridges); also: PEG5 linker joins the two macrocycles, Alexa Fluor 488 label, site not given here)
cell population in Q2 detected as CD8+ (human PBMCs): 10.9% | cell population in Q4 detected as CD8+ (human PBMCs): 11.6%
